In assay [1] the target is His-tagged KRAS G12D protein (Homo sapiens (Human), UniProt P01116, G12D). Kind of assay: KRAS G12D TR-FRET Assay. Particulars: read-out: KRAS G12D Binding IC50. It is filed as binding. The gist of the method: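 His-tagged KRAS G12D (diluted to 20 nM in pH 7.4 HEPES buffer with 10 mM MgCl2 and 10 μM GDP) was preincubated with titrated compound for 30 min at room temperature. Biotinylated KRPep-2d peptide (diluted to 20 nM) was then added for 1 h, and displacement was monitored by TR-FRET.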
(TR-FRET usually uses a lanthanide donor and a delayed reading to cut background.)

Assay [2] concerns Phosphorylation of ERK1/2 in AsPC-1 cells. Nature of the assay: Phospho-ERK1/2 MSD Assay. It is filed as cell-based, human. The note with it: read-out: 2 h p-ERK (AsPC-1 cells), IC50. On the procedure:
AsPC-1 (ATCC® CRL-1682™) cells were cultured in RPMI 1640 Medium (ThermoFisher Scientific 11875093) containing 10% fetal bovine serum (ThermoFisher Scientific 16000044) and 1× penicillin-streptomycin-glutamine (ThermoFisher Scientific 10378016). Sixteen hours prior to compound treatment, AsPC-1 cells were seeded in 96-well cell culture plates at a density of 25,000 cells/well and incubated at 37° C., 5% CO2. A compound dose-response titration was diluted in growth media, added to appropriate wells of a cell culture plate, and then incubated at 37° C., 5% CO2 for 2 hours. Following compound treatment, cells were washed with ice-cold Dulbecco's phosphate-buffered saline, no Ca^2+ or Mg^2+ (ThermoFisher Scientific 14190144), and then lysed in RIPA buffer (50 mM Tris-HCl pH 7.5, 1% Igepal, 0.5% sodium deoxycholate, 150 mM NaCl, and 0.5% sodium dodecyl sulfate) containing protease inhibitors (Roche 4693132001) and phosphatase inhibitors (Roche 4906837001). Phosphorylation of ERK1/2 in compound-treated lysates was assayed using Phospho-ERK1/2 Whole Cell Lysate kits (Meso Scale Discovery K151DWD) according to the manufacturer's protocol. Assay plates were read on a Meso Scale Discovery Sector Imager 6000, and data were analyzed using a 4-parameter logistic model to calculate IC50 values.

For assay [3], the target named is GDP-bound KRAS protein (aa 1-169), containing both G12D and C118A amino acid substitutions (Homo sapiens (Human), UniProt P01116, C118A/G12D). Nature of the assay: KRAS G12D Coupled Nucleotide Exchange Assay. The class given is biochemical. The note with it: read-out: KRAS G12D Coupled Exchange IC50.

Read-outs that look alike come from different tables or passages of the source.

Sequence of His-tagged KRAS G12D protein (P01116 other isoform, or with tags, fused parts or gaps G12D): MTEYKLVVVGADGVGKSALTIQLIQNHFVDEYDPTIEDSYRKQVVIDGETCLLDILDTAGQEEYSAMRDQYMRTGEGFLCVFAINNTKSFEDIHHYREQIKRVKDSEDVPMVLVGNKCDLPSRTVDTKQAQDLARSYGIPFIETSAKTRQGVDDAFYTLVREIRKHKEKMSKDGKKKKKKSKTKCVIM
Sequence of GDP-bound KRAS protein (aa 1-169), containing both G12D and C118A amino acid substitutions (P01116 other isoform, or with tags, fused parts or gaps G12D/C118A): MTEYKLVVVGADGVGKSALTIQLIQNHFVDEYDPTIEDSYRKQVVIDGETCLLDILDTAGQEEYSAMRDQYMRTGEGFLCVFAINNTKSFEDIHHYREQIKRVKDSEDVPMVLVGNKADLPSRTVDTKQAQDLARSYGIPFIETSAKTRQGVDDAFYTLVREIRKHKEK

Turning to `O=C1CCCCc2c(C(F)(F)F)cc3[nH]ncc3c2-c2ncc3c(nc(OC[C@@]45CCCN4C[C@H](F)C5)nc3c2F)N2CCC[C@H](C2)O1` [Example 87, (17R)-30-fluoro-24-(((2R,7aS)-2-fluorotetrahydro-1H-pyrrolo[1,2-a]pyrrol-7a(5H)-yl)methoxy)-9-(trifluoromethyl)-16-oxa-5,6,21,23,25,29-hexaazahexacyclo[24.3.1.1~17,21~.0~2,10~.0~3,7~.0~22,27~]hentriaconta-1(30),2,4,7,9,22,24,26,28-nonaen-15-one], the IC50 in assay [1] is 24 nM; in assay [2] (Homo sapiens, ASPC1, 2 h) it was 421 nM; in assay [3], 23 nM.

In the case of `O=C1CC2CCCN(C2)c2nc(OC[C@@]34CCCN3C[C@H](F)C4)nc3c(F)c(ncc23)-c2cccc3cccc(c23)CCO1` (stereo partly drawn) [Example 88], the IC50 in assay [1] was determined as 19 nM; in assay [2] (Homo sapiens, ASPC1, 2 h), 1580 nM; in assay [3] it was 11 nM.

`O=C1COCCc2c(Cl)cc3[nH]ncc3c2-c2ncc3c(nc(OC[C@@]45CCCN4C[C@H](F)C5)nc3c2F)N2CCC[C@H](C2)O1` [Example 90, (17R)-9-chloro-30-fluoro-24-(((2R,7aS)-2-fluorotetrahydro-1H-pyrrolo[1,2-a]pyrrol-7a(5H)-yl)methoxy)-13,16-dioxa-5,6,21,23,25,29-hexaazahexacyclo[24.3.1.1~17,21~.0~2,10~.0~3,7~.0~22,27~]hentriaconta-1(30),2,4,7,9,22,24,26,28-nonaen-15-one]: the IC50 came out at 12 nM in assay [1]; 167 nM in assay [2] (Homo sapiens, ASPC1, 2 h); 11 nM in assay [3].

For `Cc1cc2[nH]ncc2c2c1CCCOC(=O)O[C@@H]1CCCCN(C1)c1nc(OC[C@@H]3C[C@@H](F)CN3C)nc3c(F)c-2ncc13` [Example 92, (26R)-32-fluoro-4-(((2S,4R)-4-fluoro-1-methyl-2-pyrrolidinyl)methoxy)-18-methyl-23,25-dioxa-1,3,5,9,14,15-hexaazahexacyclo[24.4.1.1~6,10~.0~2,7~.0~11,19~.0~12,16~]dotriaconta-2,4,6,8,10(32),11,13,16,18-nonaen-24-one], the half-inhibitory concentration (IC50) came to 13 nM in assay [1]; 317 nM in assay [2] (Homo sapiens, ASPC1, 2 h); 11 nM in assay [3].

Take `Cc1cc2[nH]ncc2c2c1/C=C/COC(=O)O[C@@H]1CCCN(C1)c1nc(OC[C@@]34CCCN3C[C@H](F)C4)nc3c(F)c-2ncc13` [Example 101, (11E,17R)-30-fluoro-24-(((2R,7aS)-2-fluorotetrahydro-1H-pyrrolo[1,2-a]pyrrol-7a(5H)-yl)methoxy)-9-methyl-14,16-dioxa-5,6,21,23,25,29-hexaazahexacyclo[24.3.1.1~17,21~.0~2,10~.0~3,7~.0~22,27~]hentriaconta-1(30),2,4,7,9,11,22,24,26,28-decaen-15-one]: the IC50 in assay [1] amounted to 93 nM; in assay [2] (Homo sapiens, ASPC1, 2 h), 1340 nM; in assay [3] it was 70 nM.

With `Cc1cc2[nH]ncc2c2c1CCCCOC(=O)[C@@H]1CCCN(C1)c1nc(OC[C@@]34CCCN3C[C@H](F)C4)nc3c(F)c-2ncc13` [Example 108], the IC50 in assay [1] came to 24 nM; in assay [2] (Homo sapiens, ASPC1, 2 h), 386 nM; in assay [3], 14 nM.

On to `Cc1cc2[nH]ncc2c2c1CC(C)COC(=O)O[C@@H]1CCCN(C1)c1nc(OC[C@@]34CCCN3C[C@H](F)C4)nc3c(F)c-2ncc13` (stereo partly drawn) [Example 111], for which the IC50 in assay [1] was determined as 15 nM; in assay [2] (Homo sapiens, ASPC1, 2 h), 187 nM; in assay [3], 11 nM.

As for `CN1CCO[C@@H](COc2nc3c4cnc(c(F)c4n2)-c2c(c(Cl)cc4[nH]ncc24)CCCOC(=O)O[C@@H]2COCCN3C2)C1` [Example 124], the IC50 in assay [1] stood at 20 nM; in assay [2] (Homo sapiens, ASPC1, 2 h), 479 nM; in assay [3], 15 nM.

Take `Fc1c2ncc3c(nc(OC[C@@]45CCCN4C[C@H](F)C5)nc13)N1CCC[C@@H](COCCOCc3c(Cl)cc4[nH]ncc4c3-2)C1` [Example 142]: the IC50 in assay [1] came out at 17 nM; in assay [2] (Homo sapiens, ASPC1, 2 h), 247 nM; in assay [3] it was 15 nM.

As to `Fc1c2ncc3c(nc(OC[C@@]45CCCN4C[C@H](F)C5)nc13)N1CCC[C@H](C1)Cn1cc(cn1)/C=C\c1c(Cl)cc3[nH]ncc3c1-2` [Example 147], the IC50 was 16 nM in assay [1]; 298 nM in assay [2] (Homo sapiens, ASPC1, 2 h); 13 nM in assay [3].

As for `Fc1c2ncc3c(nc(OC[C@@]45CCCN4C[C@H](F)C5)nc13)N1CCO[C@@H](COCC(F)(F)CCc3c(Cl)cc4[nH]ncc4c3-2)C1` [Example 150, (17R)-9-Chloro-13,13,30-trifluoro-24-(((2R,7aS)-2-fluorotetrahydro-1H-pyrrolo[1,2-a]pyrrol-7a(5H)-yl)methoxy)-15,18-dioxa-5,6,21,23,25,29 hexaazahexacyclo[24.3.1.1˜17,21˜.0˜2,10˜.0˜3,7˜.0˜22,27˜]hentriaconta-1(30),2,4,7,9,22,24,26,28-nonaene], the IC50 came out at 33 nM in assay [1]; 306 nM in assay [2] (Homo sapiens, ASPC1, 2 h); 17 nM in assay [3].

Consider `Cc1cc2[nH]ncc2c2c1CCCn1ncc(n1)C1CCCN(C1)c1nc(OC[C@@]34CCCN3C[C@H](F)C4)nc3c(F)c-2ncc13` (stereo partly drawn) [Example 158, 31-Fluoro-25-(((2R,7aS)-2-fluorotetrahydro-1H-pyrrolo[1,2-a]pyrrol-7a(5H)-yl)methoxy)-9-methyl-5,6,14,15,22,24,26,30,33-nonaazaheptacyclo[25.3.1.1˜14,17˜.1˜18,22.0˜2,10˜.0˜3,7˜.0˜23,28˜]tritriaconta-1(31),2,4,7,9,15,17(33),23,25,27,29-undecaene], for which the IC50 amounted to 20 nM in assay [1], 278 nM in assay [2] (2 h) and 6 nM in assay [3].

In the case of `O=C1CCCCc2c(Cl)cccc2-c2ncc3c(nc(OC[C@@]45CCCN4C[C@H](F)C5)nc3c2F)N2CC[C@H]3CCN1[C@H]3C2` [Example 162, (25S,29R)-15-chloro-30-fluoro-4-(((2R,7aS)-2-fluorotetrahydro-1H-pyrrolo[1,2-a]pyrrol-7a(5H)-yl)methoxy)-1,3,5,9,22-pentaazahexacyclo[20.5.2.1~6,10~.0~2,7~.0~11,16~.0~25,29~]triaconta-2,4,6,8,10(30),11,13,15-octaen-21-one], the IC50 was 37 nM in assay [1]; 1830 nM in assay [2] (Homo sapiens, ASPC1, 2 h); 20 nM in assay [3].

Turning to `O=C1N[C@@H]2CN(C[C@@H]3C[C@@H]32)c2nc(OC[C@@]34CCCN3C[C@H](F)C4)nc3c(F)c(ncc23)-c2c(c(Cl)cc3[nH]ncc23)CCC[C@@H]1F` [Example 174, (23S,26S,27S,29R)-18-chloro-23,32-difluoro-4-(((2R,7aS)-2-fluorotetrahydro-1H-pyrrolo[1,2-a]pyrrol-7a(5H)-yl)methoxy)-1,3,5,9,14,15,25-heptaazaheptacyclo[24.4.1.1~6,10~.0~2,7~.0~11,19~.0~12,16~.0~27,29~]dotriaconta-2,4,6,8,10(32), 11,13,16,18-nonaen-24-one], the IC50 in assay [1] was found to be 5 nM; in assay [2] (Homo sapiens, ASPC1, 2 h) it was 53.5 nM; in assay [3], 3 nM.

`O=C1OCCc2cccc3cccc(c23)-c2ncc3c(nc(OC[C@@]45CCCN4C[C@H](F)C5)nc3c2F)N2CCOC[C@H](C2)O1` [Example 201, (16S)-32-fluoro-8-(((2R,7aS)-2-fluorotetrahydro-1H-pyrrolo[1,2-a]pyrrol-7a(5H)-yl)methoxy)-14,17,19-trioxa-3,7,9,11-tetraazahexacyclo[20.7.1.1~2,6~.1~11,16~.0~5,10~.0~26,30~]dotriaconta-1(29),2(32),3,5,7,9,22,24,26(30),27-decaen-18-one]: the IC50 was determined as 9 nM in assay [1]; 171 nM in assay [2] (Homo sapiens, ASPC1, 2 h); 8 nM in assay [3].

In the case of `C[C@@H](Oc1nc2c3cnc(c(F)c3n1)-c1c(c(Cl)cc3[nH]ncc13)CCCOC(=O)O[C@@H]1COCCN2C1)[C@@H]1CCCN1C` [Example 203, (26S)-18-chloro-32-fluoro-4-((1R)-1-((2S)-1-methyl-2-pyrrolidinyl)ethoxy)-23,25,28-trioxa-1,3,5,9,14,15-hexaazahexacyclo[24.4.1.1~6,10~.0~2,7~.0~11,19~.0~12,16~]dotriaconta-2,4,6,8,10(32),11,13,16,18-nonaen-24-one], the IC50 in assay [1] amounted to 17 nM; in assay [2] (Homo sapiens, ASPC1, 2 h), 171 nM; in assay [3], 8 nM.

In the case of `C[C@H](Oc1nc2c3cnc(c(F)c3n1)-c1c(c(Cl)cc3[nH]ncc13)CCCOC(=O)O[C@@H]1COCCN2C1)[C@@H]1CCCN1C` [Example 204, (26S)-18-chloro-32-fluoro-4-((1S)-1-((2S)-1-methyl-2-pyrrolidinyl)ethoxy)-23,25,28-trioxa-1,3,5,9,14,15-hexaazahexacyclo[24.4.1.1~6,10~.0~2,7~.0~11,19~.0~12,16~]dotriaconta-2,4,6,8,10(32),11,13,16,18-nonaen-24-one], the IC50 was 34 nM in assay [1]; 429 nM in assay [2] (Homo sapiens, ASPC1, 2 h); 16 nM in assay [3].

The term IC50 denotes the concentration that inhibits the measured activity by half.

The values above are taken from patent US20240294551A1 (AMGEN INC., priority 2022, published 2024).
